Drawing on patent US20090192153A1, “NOVEL ADENINE COMPOUND” (priority 2005, published 2009), this text covers EC50 for twelve molecules.

The experiment addresses T1, human TLR7 (Homo sapiens, UniProt Q9NYK1).
T1 construct: expressed in transfected cells; host or cells: HEK293 (hTLR7/seap-293), stably transfected
T1 sequence (Q9NYK1 27-1049): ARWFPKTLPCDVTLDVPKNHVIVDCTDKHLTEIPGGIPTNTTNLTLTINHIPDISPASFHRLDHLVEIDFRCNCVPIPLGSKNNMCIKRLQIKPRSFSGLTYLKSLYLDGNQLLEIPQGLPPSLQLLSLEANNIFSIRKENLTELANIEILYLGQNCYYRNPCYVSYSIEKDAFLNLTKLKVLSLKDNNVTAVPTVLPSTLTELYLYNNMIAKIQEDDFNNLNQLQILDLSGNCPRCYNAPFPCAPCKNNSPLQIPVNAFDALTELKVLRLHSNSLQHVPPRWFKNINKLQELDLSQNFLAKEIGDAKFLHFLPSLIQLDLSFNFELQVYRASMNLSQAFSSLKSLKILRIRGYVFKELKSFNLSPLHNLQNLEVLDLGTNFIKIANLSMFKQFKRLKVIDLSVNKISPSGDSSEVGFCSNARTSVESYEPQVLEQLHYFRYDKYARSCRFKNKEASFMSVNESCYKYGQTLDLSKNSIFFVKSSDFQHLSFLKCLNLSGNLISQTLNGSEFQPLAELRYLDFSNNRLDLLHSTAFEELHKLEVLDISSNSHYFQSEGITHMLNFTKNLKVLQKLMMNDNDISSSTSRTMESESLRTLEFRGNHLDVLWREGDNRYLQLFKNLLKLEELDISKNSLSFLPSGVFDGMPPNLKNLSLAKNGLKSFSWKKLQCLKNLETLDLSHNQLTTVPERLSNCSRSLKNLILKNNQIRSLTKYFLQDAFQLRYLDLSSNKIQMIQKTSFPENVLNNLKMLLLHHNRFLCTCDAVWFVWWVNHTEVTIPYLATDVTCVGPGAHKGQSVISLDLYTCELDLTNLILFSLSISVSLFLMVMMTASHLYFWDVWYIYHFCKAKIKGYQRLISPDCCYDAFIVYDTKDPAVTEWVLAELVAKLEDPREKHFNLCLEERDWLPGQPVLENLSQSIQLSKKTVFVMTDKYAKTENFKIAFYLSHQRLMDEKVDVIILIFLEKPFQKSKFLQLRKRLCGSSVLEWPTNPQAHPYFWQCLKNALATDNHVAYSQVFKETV
Kind of experiment: Human TLR7 reporter assay (NF-kB-SEAP in HEK293 cells). Format: cell-based. The note with it: HEK293 cells stably carrying human TLR7 plasmid and NF-kB-SEAP reporter plasmid; 20 hours culture; final concentration 1 nM-10 μM; absorbance 405 nm; read-out: Human TLR7 binding activity (EC50). As to the method:
Human TLR7 Reporter Assay
HEK293 cells in which human TLR7 or rat TLR7 plasmid and reporter plasmid (NF-kB-SEAP) are stably introduced are dispersed in DMEM broth (10% FBS, 1% NEAA, 10 ug/mL blastocidin S HCl, 100 ug/mL Zeocin), and were seeded to 96 well plate per 90 μl/well (hTLR7/seap-293:20000 cells/well, rTLR7/seap-293:25000 cells/well).
Test compound (DMSO stock solution (2 μl) was diluted with the broth (200 μl) by 100 times) was added to the seeded cells to a 96 well plate (10 μl/well) (final concentration; 1 nM-10 μM, common ratio 3). After stirring by tapping side of the plate, the cells were cultured in a CO2 incubator for 20 hours. A substrate (50 μl/well) for reporter assay (substrate for SEAP, pNPP) was added to cells stimulated by test sample. Ten minutes after adding the substrate, the reaction quenching solution (4N NaOH) was added by 50 μl/well to cease enzymatic reaction. Sealing a top seal A on the plate, the absorbance was measured by a micro plate reader (405 nm).

Take `CCCCOc1nc(N)c2[nH]c(=O)n(CCCCCN3CCC(C(=O)OC)CC3)c2n1` [Example 1, 2-Butoxy-7,8-dihydro-9-[5-(4-methoxycarbonylpiperidin-1-yl)pentyl]-8-oxoadenine]: the EC50 was 145 nM.

With `CCCCOc1nc(N)c2[nH]c(=O)n(CCCCCN3CCCC(CC(=O)OC)C3)c2n1` (stereo not drawn) [Example 3, 2-Butoxy-7,8-dihydro-9-[5-(3-methoxycarbonylmethylpiperidin-1-yl)pentyl]-8-oxoadenine], the EC50 was found to be 571 nM.

With `CCCCOc1nc(N)c2[nH]c(=O)n(CCN3CCCC(C(=O)OC)C3)c2n1` (stereo not drawn) [Example 5, 2-Butoxy-7,8-dihydro-9-[2-(3-methoxycarbonylpiperidin-1-yl)ethyl]-8-oxoadenine], the EC50 was 807 nM.

As to `CCCCOc1nc(N)c2[nH]c(=O)n(CCN3CCN(CCC(=O)OC)CC3)c2n1` [Example 7, 2-Butoxy-7,8-dihydro-9-[2-{4-(2-methoxycarbonylethyl)piperazin-1-yl}ethyl]-8-oxoadenine], the EC50 was 4790 nM.

Regarding `CCCCOc1nc(N)c2[nH]c(=O)n(CCCN3CCC(C(=O)OC)CC3)c2n1` [Example 8, 2-Butoxy-7,8-dihydro-9-[3-(4-methoxycarbonylpiperidin-1-yl)propyl]-8-oxoadenine], the EC50 turned out to be 1230 nM.

Take `CCCCOc1nc(N)c2[nH]c(=O)n(CCCN3CCCC(C(=O)OC)C3)c2n1` (stereo not drawn) [Example 9, 2-Butoxy-7,8-dihydro-9-[3-(3-methoxycarbonylpiperidin-1-yl)propyl]-8-oxoadenine]: the EC50 was determined as 989 nM.

In the case of `CCCCOc1nc(N)c2[nH]c(=O)n(CCCN3CCC(CC(=O)OC)CC3)c2n1` [Example 11, 2-Butoxy-7,8-dihydro-9-{3-[4-(2-methoxy-2-oxoethyl)piperidin-1-yl]propyl}-8-oxoadenine], the EC50 stood at 3240 nM.

As for `CCCCOc1nc(N)c2[nH]c(=O)n(CCCN3CCCC(CC(=O)OC)C3)c2n1` (stereo not drawn) [Example 12, 2-Butoxy-7,8-dihydro-9-{3-[3-(2-methoxy-2-oxoethyl)piperidin-1-yl]propyl}-8-oxoadenine], the concentration for a half-maximal effect (EC50) is 1610 nM.

For `CCCCOc1nc(N)c2[nH]c(=O)n(CCCCCCN3CCC(C(=O)OC)CC3)c2n1` [Example 15, 2-Butoxy-7,8-dihydro-9-[6-(4-methoxycarbonylpiperidin-1-yl)hexyl]-8-oxoadenine], the half-maximal effective concentration (EC50) came out at 95.2 nM.

`CCCCOc1nc(N)c2[nH]c(=O)n(CCCCCCCN3CCC(C(=O)OC)CC3)c2n1` [Example 16]: the concentration for a half-maximal effect (EC50) was found to be 145 nM.

As to `CCCCOc1nc(N)c2[nH]c(=O)n(CCCCCCCCN3CCC(C(=O)OC)CC3)c2n1` [Example 17, 2-Butoxy-7,8-dihydro-9-[8-(4-methoxycarbonylpiperidin-1-yl)octyl]-8-oxoadenine], the half-maximal effective concentration (EC50) amounted to 148 nM.

On to `CCCCOc1nc(N)c2[nH]c(=O)n(CCCCN3CCCC(C(=O)OC)C3)c2n1` (stereo not drawn) [Example 19, 2-Butoxy-7,8-dihydro-9-[4-(3-methoxycarbonylpiperidin-1-yl)butyl]-8-oxoadenine], for which the EC50 turned out to be 631 nM.
